According to PubChem BioAssay AID330 (DTP/NCI, 2004):
“And” between values parts separate entries of the source, which are not always exact repeats. Equal values may be shown once. Inconclusive results and toxic doses are left out.

Tested on: P388 leukemia ip, CD2F1 mice, survival T/C
Assay: NCI In Vivo Anticancer Drug Screen. Data for tumor model P388 Leukemia (intraperitoneal) in CD2F1 (CDF1) mice
Conditions: endpoint: median survival time, higher = longer survival
Procedure, shortened: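 Mice carrying the transplanted tumor received test compound or vehicle. Survival was recorded in each group, and the value is the treated-group measurement divided by that of the vehicle-treated control group.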

[1] = dose: 50.0 mg/kg/injection, schedule: Q01DX005 (ip), vehicle: saline with Tween-80
[2] = dose: 100.0 mg/kg/injection, schedule: Q01DX005 (ip), vehicle: saline with Tween-80
[3] = dose: 200.0 mg/kg/injection, schedule: Q01DX005 (ip), vehicle: saline with Tween-80
[4] = dose: 50.0 mg/kg/injection, schedule: Q01DX005 (ip), vehicle: Klucel (hydroxypropylcellulose) (HPC)
[5] = dose: 100.0 mg/kg/injection, schedule: Q01DX005 (ip), vehicle: Klucel (hydroxypropylcellulose) (HPC)
[6] = dose: 200.0 mg/kg/injection, schedule: Q01DX005 (ip), vehicle: Klucel (hydroxypropylcellulose) (HPC)
[7] = dose: 60.0 mg/kg/injection, schedule: Q01DX005 (ip), vehicle: saline
[8] = dose: 120.0 mg/kg/injection, schedule: Q01DX005 (ip), vehicle: saline
[9] = dose: 240.0 mg/kg/injection, schedule: Q01DX005 (ip), vehicle: saline
[10] = dose: 400.0 mg/kg/injection, schedule: Q01DX005 (ip), vehicle: saline with Tween-80

Compound: CC(=O)Oc1cc(-c2ccccc2)oc1-c1ccccc1
- T/C (dose: 100.0 mg/kg/injection, schedule: Q04DX002 (ip), vehicle: saline): 104 % of control
- T/C (dose: 200.0 mg/kg/injection, schedule: Q04DX002 (ip), vehicle: saline): 106 % of control
- T/C (dose: 400.0 mg/kg/injection, schedule: Q04DX002 (ip), vehicle: saline): 98 % of control

Compound: CCOc1c(N=Nc2ccccc2OC)c(-c2ccccc2)nn1C(N)=S
- T/C [1]: 88 % of control
- T/C [2]: 87 % of control
- T/C [3]: 98 % of control

Compound: C=C(CN(C)C)C(=O)c1ccccc1C
- T/C (dose: 0.78 mg/kg/injection, schedule: Q01DX005 (ip), vehicle: saline): 102 % of control
- T/C (dose: 1.56 mg/kg/injection, schedule: Q01DX005 (ip), vehicle: saline): 98 % of control
- T/C (dose: 3.12 mg/kg/injection, schedule: Q01DX005 (ip), vehicle: saline): 94 % of control
- T/C (dose: 6.25 mg/kg/injection, schedule: Q01DX005 (ip), vehicle: suspension in saline): 108 % of control

Compound: O=c1[nH]nc(OCCO)c2ccccc12
- T/C [4]: 100 % of control
- T/C [5]: 98 % of control
- T/C [6]: 99 % of control

Compound: CC1(OC(=O)c2ccc([N+](=O)[O-])cc2)CC(C)(C)[N+]([O-])=N1 (centres undefined)
- T/C (dose: 12.5 mg/kg/injection, schedule: Q01DX009 (ip), vehicle: other): 102 % of control
- T/C (dose: 25.0 mg/kg/injection, schedule: Q01DX009 (ip), vehicle: other): 102 % of control
- T/C (dose: 50.0 mg/kg/injection, schedule: Q01DX009 (ip), vehicle: other): 109 % of control
- T/C (dose: 100.0 mg/kg/injection, schedule: Q01DX009 (ip), vehicle: other): 100 % of control
- T/C (dose: 200.0 mg/kg/injection, schedule: Q01DX009 (ip), vehicle: other): 94 % of control

Compound: COc1cccc2c1C(=O)c1c(O)c3c(c(O)c1C2=O)CC(O)(/C(CO)=N/NC(=O)CCC(=O)N/N=C(\CO)C1(O)Cc2c(O)c4c(c(O)c2C(OC2CC(N)C(O)C(C)O2)C1)C(=O)c1c(OC)cccc1C4=O)CC3OC1CC(N)C(O)C(C)O1 (centres undefined)
- T/C (dose: 0.78 mg/kg/injection, schedule: Q01DX009 (ip), vehicle: water): 152 % of control
- T/C (dose: 1.56 mg/kg/injection, schedule: Q01DX009 (ip), vehicle: water): 170 % of control and 196 % of control
- T/C (dose: 2.35 mg/kg/injection, schedule: Q04DX003 (ip), vehicle: water): 110 % of control
- T/C (dose: 3.13 mg/kg/injection, schedule: Q01DX009 (ip), vehicle: water): 218 % of control and 222 % of control
- T/C (dose: 4.7 mg/kg/injection, schedule: Q04DX003 (ip), vehicle: water): 114 % of control
- T/C (dose: 6.25 mg/kg/injection, schedule: Q01DX009 (ip), vehicle: water): 114 % of control and 309 % of control
- T/C (dose: 9.4 mg/kg/injection, schedule: Q04DX003 (ip), vehicle: water): 121 % of control and 124 % of control
- T/C (dose: 12.5 mg/kg/injection, schedule: Q01DX009 (ip), vehicle: water): 102 % of control and 86 % of control
- T/C (dose: 18.8 mg/kg/injection, schedule: Q04DX003 (ip), vehicle: water): 154 % of control
- T/C (dose: 37.5 mg/kg/injection, schedule: Q04DX003 (ip), vehicle: water): 181 % of control
- T/C (dose: 75.0 mg/kg/injection, schedule: Q04DX003 (ip), vehicle: water): 118 % of control

Compound: CC(C)S(=O)(=O)n1c(N)nc2ccc(/C(=N/O)c3ccccc3)cc21
- T/C [4]: 100 % of control
- T/C [5]: 101 % of control
- T/C [6]: 95 % of control

Compound: COC1c2ccccc2CC(c2ccccc2)=NN1C(C)=O (centres undefined)
- T/C [7]: 100 % of control
- T/C [8]: 102 % of control
- T/C [9]: 97 % of control

Compound: Cc1ccc2c(c1)nc(-c1ccccn1)n2CCc1ccccn1
- T/C (dose: 50.0 mg/kg/injection, schedule: Q04DX002 (ip), vehicle: Klucel (hydroxypropylcellulose) (HPC)): 100 % of control
- T/C (dose: 100.0 mg/kg/injection, schedule: Q04DX002 (ip), vehicle: Klucel (hydroxypropylcellulose) (HPC)): 102 % of control
- T/C (dose: 200.0 mg/kg/injection, schedule: Q04DX002 (ip), vehicle: Klucel (hydroxypropylcellulose) (HPC)): 105 % of control

Compound: CCOC(=O)C(Cc1ccc(N(CCCl)CCCl)cc1)NC(=O)C(Cc1ccc(N)cc1)NC(C)=O (centres undefined)
- T/C (dose: 3.12 mg/kg/injection, schedule: Q01DX005 (ip), vehicle: saline with Tween-80): 123 % of control
- T/C (dose: 6.25 mg/kg/injection, schedule: Q01DX005 (ip), vehicle: saline with Tween-80): 159 % of control
- T/C (dose: 12.5 mg/kg/injection, schedule: Q01DX005 (ip), vehicle: saline with Tween-80): 207 % of control
- T/C (dose: 25.0 mg/kg/injection, schedule: Q01DX005 (ip), vehicle: saline with Tween-80): 298 % of control
- T/C [1]: 104 % of control and 115 % of control and 117 % of control
- T/C [2]: 114 % of control and 120 % of control
- T/C [3]: 122 % of control
- T/C [10]: 115 % of control

Compound: CC(=O)O/N=C/c1ccccn1
- T/C (dose: 25.0 mg/kg/injection, schedule: Q04DX003 (ip), vehicle: saline): 94 % of control
- T/C (dose: 50.0 mg/kg/injection, schedule: Q04DX003 (ip), vehicle: saline): 89 % of control and 94 % of control
- T/C (dose: 100.0 mg/kg/injection, schedule: Q04DX003 (ip), vehicle: saline): 100 % of control
- T/C (dose: 200.0 mg/kg/injection, schedule: Q04DX003 (ip), vehicle: saline): 98 % of control and 100 % of control

Compound: O=C1C=CC(=Nc2ccc3[nH]c4ccccc4c3c2)C=C1
- T/C [1]: 101 % of control and 92 % of control and 96 % of control
- T/C [2]: 104 % of control and 93 % of control and 96 % of control
- T/C [3]: 108 % of control and 121 % of control and 96 % of control
- T/C [10]: 108 % of control

Compound: COC1C2OC(C)(C)OC2OC1C(C)N(C)O (centres undefined)
- T/C (dose: 100.0 mg/kg/injection, schedule: Q01DX001 (ip), vehicle: Klucel (hydroxypropylcellulose) (HPC)): 103 % of control
- T/C (dose: 100.0 mg/kg/injection, schedule: Q01DX001 (ip), vehicle: saline): 116 % of control
- T/C (dose: 200.0 mg/kg/injection, schedule: Q01DX001 (ip), vehicle: Klucel (hydroxypropylcellulose) (HPC)): 106 % of control
- T/C (dose: 200.0 mg/kg/injection, schedule: Q01DX001 (ip), vehicle: saline): 104 % of control
- T/C (dose: 400.0 mg/kg/injection, schedule: Q01DX001 (ip), vehicle: Klucel (hydroxypropylcellulose) (HPC)): 103 % of control
- T/C (dose: 400.0 mg/kg/injection, schedule: Q01DX001 (ip), vehicle: saline): 99 % of control

Compound: O=C(O)CN1C(=O)c2cccc3cccc(c23)C1=O
- T/C (dose: 50.0 mg/kg/injection, schedule: Q01DX009 (ip), vehicle: suspension in saline): 101 % of control
- T/C (dose: 100.0 mg/kg/injection, schedule: Q01DX009 (ip), vehicle: suspension in saline): 102 % of control
- T/C (dose: 200.0 mg/kg/injection, schedule: Q01DX009 (ip), vehicle: suspension in saline): 100 % of control

Compound: O=C1OCC/C1=C\N1CCCCC1
- T/C [7]: 102 % of control
- T/C [8]: 100 % of control
- T/C [9]: 106 % of control

Compound: O=C1OC2C3COC(=O)c4cc(O)c(O)c(O)c4-c4c(cc(O)c(O)c4O)C(=O)OC2C(OC(=O)c2cc(O)c(O)c4c2[C@@H]2C1=CC(=O)[C@](O)(O4)C2(O)O)C(OC(=O)c1cc(O)c(O)c(O)c1)O3 (some centres undefined)
- T/C (dose: 6.25 mg/kg/injection, schedule: Q01DX005 (ip), vehicle: DMSO): 106 % of control
- T/C (dose: 12.5 mg/kg/injection, schedule: Q01DX005 (ip), vehicle: DMSO): 106 % of control
- T/C (dose: 25.0 mg/kg/injection, schedule: Q01DX005 (ip), vehicle: DMSO): 115 % of control
